Test results reported in ChEMBL document CHEMBL1201862, “PubChem BioAssay data set” (2004).
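Five concentrations, 48 hours, 96-well plates. At the GI50, growth is halved.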 The source made the active and inactive calls. No stated cut-off is given here; in the data, active = GI50 up to about 1.1 µM and inactive = higher.

Legend:
Test in all cases: inhibition of tumour cell growth, NCI panel, 48 h
[1] = test system: HOP-62
[2] = test system: UACC-257
[3] = test system: SNB-19
[4] = test system: UACC-62
[5] = test system: NCI-H460
[6] = test system: SK-MEL-5
[7] = test system: SK-MEL-28
[8] = test system: K562
[9] = test system: U-251
[10] = test system: SK-MEL-2
[11] = test system: SNB-75
[12] = test system: A549
[13] = test system: HT-29
[14] = test system: Malme-3M
[15] = test system: SN12C
[16] = test system: EKVX
[17] = test system: SF-268
[18] = test system: LXFL 529
[19] = test system: TK-10
[20] = test system: UO-31
[21] = test system: HCT-116
[22] = test system: OVCAR-4
[23] = test system: MOLT-4
[24] = test system: HOP-92
[25] = test system: M19-MEL
[26] = test system: SNB-78
[27] = test system: OVCAR-8
[28] = test system: NCI-H23
[29] = test system: ACHN
[30] = test system: SF-539
[31] = test system: XF498
[32] = test system: IGROV-1
[33] = test system: HCT-15
[34] = test system: DMS-114
[35] = test system: CCRF-CEM
[36] = test system: KM-20L2
[37] = test system: SK-OV-3
[38] = test system: A498
[39] = test system: LOX IMVI
[40] = test system: 786-0
[41] = test system: RXF 393
[42] = test system: OVCAR-5
[43] = test system: HOP-18
[44] = test system: KM12
[45] = test system: DLD-1
[46] = test system: RPMI-8226
[47] = test system: SW-620
[48] = test system: CAKI-1
[49] = test system: OVCAR-3
[50] = test system: HCC 2998
[51] = test system: SF-295
[52] = test system: NCI-H226
[53] = test system: COLO 205
[54] = test system: SR
[55] = test system: DMS-273
[56] = test system: HL-60
[57] = test system: NCI-H522
[58] = test system: M14

COc1ccc(/N=C\c2cc(OC)c(OC)c(OC)c2)cc1
GI50 [1]: > 100 µM (inactive) | GI50 [2]: > 100 µM (inactive) | GI50 [3]: > 100 µM (inactive) | GI50 [4]: 23.9 µM (inactive) | GI50 [5]: 85.9 µM (inactive) | GI50 [6]: > 100 µM (inactive) | GI50 [7]: > 100 µM (inactive) | GI50 [8]: 33.7 µM (inactive) | GI50 [9]: > 100 µM (inactive) | GI50 [10]: > 100 µM (inactive) | GI50 [11]: > 100 µM (inactive) | GI50 [12]: > 100 µM (inactive) | GI50 [13]: > 100 µM (inactive) | GI50 [14]: > 100 µM (inactive) | GI50 [15]: > 100 µM (inactive) | GI50 [16]: > 100 µM (inactive) | GI50 [17]: > 100 µM (inactive) | GI50 [18]: 51.6 µM (inactive) | GI50 [19]: > 100 µM (inactive) | GI50 [20]: 64.9 µM (inactive) | GI50 [21]: > 100 µM (inactive) | GI50 [22]: > 100 µM (inactive) | GI50 [23]: > 100 µM (inactive) | GI50 [24]: > 100 µM (inactive) | GI50 [25]: > 100 µM (inactive) | GI50 [26]: > 100 µM (inactive) | GI50 [27]: > 100 µM (inactive) | GI50 [28]: > 100 µM (inactive) | GI50 [29]: 94 µM (inactive) | GI50 [30]: 87.1 µM (inactive) | GI50 [31]: > 100 µM (inactive) | GI50 [32]: > 100 µM (inactive) | GI50 [33]: 29.2 µM | GI50 [34]: 57.4 µM (inactive) | GI50 [35]: 57.5 µM (inactive) | GI50 [36]: > 100 µM (inactive) | GI50 [37]: > 100 µM (inactive) | GI50 [38]: > 100 µM (inactive) | GI50 [39]: 17.5 µM (inactive) | GI50 [40]: > 100 µM (inactive) | GI50 [41]: > 100 µM (inactive) | GI50 [42]: > 100 µM (inactive) | GI50 [43]: > 100 µM (inactive) | GI50 [44]: > 100 µM (inactive) | GI50 [45]: > 100 µM (inactive) | GI50 [46]: 18.7 µM (inactive) | GI50 [47]: 14.3 µM (inactive)

Cc1c(/C=N/N=C/c2[nH]c(C(=O)OC(C)(C)C)c(C)c2C)[nH]c(C(=O)OC(C)(C)C)c1C
GI50 [48]: > 100 µM (inactive) | GI50 [1]: > 100 µM (inactive) | GI50 [49]: > 100 µM (inactive) | GI50 [2]: > 100 µM (inactive) | GI50 [3]: > 100 µM (inactive) | GI50 [4]: > 100 µM (inactive) | GI50 [50]: > 100 µM (inactive) | GI50 [5]: 81.5 µM (inactive) | GI50 [6]: > 100 µM (inactive) | GI50 [8]: 59.4 µM (inactive) | GI50 [9]: > 100 µM (inactive) | GI50 [10]: > 100 µM (inactive) | GI50 [11]: 33 µM (inactive) | GI50 [12]: > 100 µM (inactive) | GI50 [51]: > 100 µM (inactive) | GI50 [13]: > 100 µM (inactive) | GI50 [14]: > 100 µM (inactive) | GI50 [15]: > 100 µM (inactive) | GI50 [16]: > 100 µM (inactive) | GI50 [17]: > 100 µM (inactive) | GI50 [18]: > 100 µM (inactive) | GI50 [52]: > 100 µM (inactive) | GI50 [19]: > 100 µM (inactive) | GI50 [20]: > 100 µM (inactive) | GI50 [21]: > 100 µM (inactive) | GI50 [22]: > 100 µM (inactive) | GI50 [23]: > 100 µM (inactive) | GI50 [24]: 67.8 µM (inactive) | GI50 [25]: > 100 µM (inactive) | GI50 [26]: > 100 µM (inactive) | GI50 [27]: 98.9 µM (inactive) | GI50 [28]: > 100 µM (inactive) | GI50 [30]: > 100 µM (inactive) | GI50 [32]: > 100 µM (inactive) | GI50 [33]: > 100 µM | GI50 [34]: > 100 µM (inactive) | GI50 [35]: 70.1 µM (inactive) | GI50 [53]: > 100 µM (inactive) | GI50 [36]: > 100 µM (inactive) | GI50 [37]: > 100 µM (inactive) | GI50 [38]: > 100 µM (inactive) | GI50 [39]: 61 µM (inactive) | GI50 [40]: 50.8 µM (inactive) | GI50 [54]: > 100 µM (inactive) | GI50 [41]: > 100 µM (inactive) | GI50 [55]: > 100 µM (inactive) | GI50 [56]: 43.3 µM (inactive) | GI50 [42]: > 100 µM (inactive) | GI50 [57]: 66.5 µM (inactive) | GI50 [43]: > 100 µM (inactive) | GI50 [44]: > 100 µM (inactive) | GI50 [58]: > 100 µM (inactive) | GI50 [45]: > 100 µM (inactive) | GI50 [46]: 90.6 µM (inactive) | GI50 [47]: > 100 µM (inactive)

C/C(=N\NS(=O)(=O)c1ccc(C)cc1)c1ccc[n+]([O-])n1
GI50 [48]: 25.1 µM (inactive) | GI50 [1]: > 100 µM (inactive) | GI50 [49]: 39.5 µM (inactive) | GI50 [2]: > 100 µM (inactive) | GI50 [3]: > 100 µM (inactive) | GI50 [4]: > 100 µM (inactive) | GI50 [50]: > 100 µM (inactive) | GI50 [5]: > 100 µM (inactive) | GI50 [6]: > 100 µM (inactive) | GI50 [7]: > 100 µM (inactive) | GI50 [8]: 26.3 µM (inactive) | GI50 [9]: > 100 µM (inactive) | GI50 [11]: 37.9 µM (inactive) | GI50 [12]: > 100 µM (inactive) | GI50 [51]: > 100 µM (inactive) | GI50 [13]: > 100 µM (inactive) | GI50 [15]: > 100 µM (inactive) | GI50 [16]: > 100 µM (inactive) | GI50 [17]: > 100 µM (inactive) | GI50 [18]: 45.2 µM (inactive) | GI50 [20]: > 100 µM (inactive) | GI50 [21]: > 100 µM (inactive) | GI50 [22]: > 100 µM (inactive) | GI50 [23]: 56.9 µM (inactive) | GI50 [24]: 32.3 µM (inactive) | GI50 [25]: > 100 µM (inactive) | GI50 [27]: 99.3 µM (inactive) | GI50 [28]: > 100 µM (inactive) | GI50 [29]: > 100 µM (inactive) | GI50 [30]: > 100 µM (inactive) | GI50 [31]: > 100 µM (inactive) | GI50 [32]: > 100 µM (inactive) | GI50 [33]: > 100 µM | GI50 [34]: > 100 µM (inactive) | GI50 [35]: 25.2 µM (inactive) | GI50 [36]: > 100 µM (inactive) | GI50 [37]: > 100 µM (inactive) | GI50 [38]: > 100 µM (inactive) | GI50 [40]: > 100 µM (inactive) | GI50 [54]: 36.7 µM (inactive) | GI50 [55]: > 100 µM (inactive) | GI50 [56]: 26.9 µM (inactive) | GI50 [42]: > 100 µM (inactive) | GI50 [57]: 36.9 µM (inactive) | GI50 [43]: > 100 µM (inactive) | GI50 [44]: > 100 µM (inactive) | GI50 [58]: 39.6 µM (inactive) | GI50 [45]: 50.1 µM (inactive) | GI50 [46]: 36.8 µM (inactive) | GI50 [47]: 32.1 µM (inactive)
